Series [1] relates to Toxoplasma gondii RH-2F strain. The series is described as follows: Parasite growth assay. In kind it is cell-based. Conditions: for IC50 / inhibition at 10 µM: Toxoplasma gondii, 48 h; for IC50: read-out: IC50 for parasite growth; for inhibition at 10 µM: HFF, read-out: Parasite inhibition (%).
Series [2] has as its system human foreskin fibroblasts (HFF). Briefly: Host cell cytotoxicity assay. In kind it is cell-based. The following applies: for Host cell inhibition (%): 10 µM compounds, HFF cells, 48 hr; for IC50: Homo sapiens, HFF, 48 h, read-out: IC50 for host cell.
The subject of series [3] is Toxoplasma gondii RH-2F intracellular tachyzoites. The series is described as follows: Intracellular parasite growth assay. The series is classed as cell-based. Conditions: added after 2-hr invasion, 48 hr.
For the next series, the system named is Toxoplasma gondii. The following applies: cited from earlier work.

“Also recorded” adds a separate entry of the source.

As usually defined, the IC50 is the point on the concentration scale where inhibition reaches its midpoint. Broadly, the inhibition is the percentage by which the read-out fell short of the control.

With `CC(C)=CC[C@H](O)C1=CC(=O)c2c(O)ccc(O)c2C1=O` [Alkannin], in series [1], the IC50 was 1.3 µM and the inhibition at 10 µM is 86.9%. Also, in series [2], the “Host cell inhibition (%)” value is −0.3% and the IC50 worked out at 5.4 µM. For the same compound, the “Host cell inhibition (%)” value in series [2] (listed as alkannin) is on record as “did not kill the host cells”.
On to `O=c1cc(-c2ccccc2)oc2cc(O)c(O)c(O)c12` [Baicalein], for which the IC50 was 5 µM in series [1] and greater than 50 µM in series [2]. Besides, in series [1], the inhibition at 10 µM turned out to be 80.1%. Also, the “Host cell inhibition (%)” value in series [2] was 3.3%; in series [2] (listed as baicalein), “did not kill the host cells”. Besides, the “Inhibition of intracellular parasite growth” value is reported as “effectively inhibited the intracellular parasite growth” in series [3] (10 µM) and “effectively inhibited intracellular parasite growth” in series [3] (10 µM, listed as baicalein).
Turning to `COc1ccc2cc3[n+](cc2c1OC)CCc1cc2c(cc1-3)OCO2` [Berberine Chloride], in series [1], the IC50 was 2.2 µM and the inhibition at 10 µM worked out at 85.5%. Besides, in series [2], the “Host cell inhibition (%)” value is recorded as −3.0% and the IC50 is 2.8 µM. Besides, in series [2] (listed as berberine chloride), the “Host cell inhibition (%)” value is on record as “did not kill the host cells”.
On to `c1c2c(cc3c1OCO3)-c1cc3ccc4c(c3c[n+]1CC2)OCO4` [Coptisine Chloride], for which the 50% inhibitory concentration (IC50) was 2.1 µM in series [1] and greater than 50 µM in series [2]. For the same compound, the inhibition at 10 µM in series [1] was determined as 73.3%. The “Dose dependence of parasite growth inhibition” value in series [1] (high concentrations, data not shown) is reported as “did not inhibit parasite growth in a dose-dependent manner”. Moreover, the “Host cell inhibition (%)” value in series [2] is listed as 6.4%; in series [2] (listed as coptisine chloride), “did not kill the host cells”.
On to `O=c1cc(-c2ccc(O)c(O)c2)oc2cc(O)cc(O)c12` [Luteolin], for which the IC50 was 5.7 µM in series [1] and greater than 50 µM in series [2]. Besides, in series [1], the inhibition at 10 µM was 74.3%. In addition, the “Inhibition of intracellular parasite growth” value in series [3] (10 µM) is listed as “effectively inhibited the intracellular parasite growth”.
`CCc1nc(N)nc(N)c1-c1ccc(Cl)cc1` [Pyrimethamine, reference compound]: the “Selectivity indexes (SI)” value in the series on Toxoplasma gondii is listed as 0.21. For the same compound, the “Inhibition of intracellular parasite growth” value in series [3] (10 µM) was “inhibited the intracellular growth”.
In the case of `CC(C)=CC[C@@H](O)C1=CC(=O)c2c(O)ccc(O)c2C1=O` [Shikonin], the IC50 in series [1] came out at 1.4 µM; in series [2] it was 17.8 µM. For the same compound, in series [1], the inhibition at 10 µM worked out at 87.3%. Also, the “Host cell inhibition (%)” value is reported as 43.4% in series [2] and “did not kill the host cells; also recorded: killed some of the host cells” in series [2] (listed as shikonin).
Regarding `C[C@H]1CC[C@@]2(OC1)O[C@H]1C[C@H]3[C@@H]4CC[C@@H]5C[C@@H](O[C@@H]6O[C@H](CO)[C@H](O)[C@H](O)[C@H]6O[C@@H]6O[C@H](CO)[C@@H](O)[C@H](O)[C@H]6O)CC[C@]5(C)[C@H]4CC[C@]3(C)[C@H]1[C@@H]2C` [Timosaponin A-III], in series [1], the inhibition at 10 µM is 81.4%. The “Host cell inhibition (%)” value in series [2] is reported as 98.3%; in series [2] (listed as timosaponin A-III), “killed almost all of the host cells”.
As to `Nc1ccc(S(=O)(=O)Nc2ncccn2)cc1` [sulphadiazine], in the series on Toxoplasma gondii, the “Selectivity indexes (SI)” value is recorded as 0.29.
Consider dextran sulfate [reference compound], for which the “Inhibition of intracellular parasite growth” value in series [3] (25 mg/ml) is listed as “hardly affected the intracellular parasites”.
